Source: ChEMBL document CHEMBL1157738, “Simocyclinone D8 turns on against Gram-negative bacteria in a clinical setting” (2010)
Converted amounts (≈) assume the structure as drawn.

Key:
Assay type in all cases: functional
[1] = tested on: Klebsiella pneumoniae; assay: Antibacterial activity against Klebsiella pneumoniae isolate 328 expressing qnr B19 gene, GyrA D87G mutant after 24 hrs by twofold serial dilution method; conditions: isolate 328, 24 h
[2] = tested on: Escherichia coli; assay: Antibacterial activity against Escherichia coli isolate 7 after 24 hrs by twofold serial dilution method; conditions: Escherichia coli, isolate 7, 24 h
[3] = tested on: Klebsiella pneumoniae; assay: Antibacterial activity against Klebsiella pneumoniae isolate 134 after 24 hrs by twofold serial dilution method; conditions: Klebsiella pneumoniae, isolate 134, 24 h
[4] = tested on: Klebsiella pneumoniae; assay: Antibacterial activity against Klebsiella pneumoniae isolate 91 after 24 hrs by twofold serial dilution method; conditions: Klebsiella pneumoniae, isolate 91, 24 h
[5] = tested on: Escherichia coli; assay: Antibacterial activity against Escherichia coli isolate 85 expressing GyrA S83L mutant after 24 hrs by twofold serial dilution method; conditions: isolate 85, 24 h
[6] = tested on: Klebsiella pneumoniae; assay: Antibacterial activity against Klebsiella pneumoniae isolate 97 expressing qnr B19 gene after 24 hrs by twofold serial dilution method; conditions: Klebsiella pneumoniae, isolate 97, 24 h
[7] = tested on: Escherichia coli; assay: Antibacterial activity against Escherichia coli XL-1Blue after 24 hrs by twofold serial dilution method; conditions: Escherichia coli, XL-1Blue, 24 h
[8] = tested on: Escherichia coli; assay: Antibacterial activity against Escherichia coli isolate 191 expressing qnr S1 gene after 24 hrs by twofold serial dilution method; conditions: Escherichia coli, isolate 191, 24 h
[9] = tested on: Escherichia coli; assay: Antibacterial activity against Escherichia coli isolate 50 expressing qnr B19 gene after 24 hrs by twofold serial dilution method; conditions: Escherichia coli, isolate 50, 24 h
[10] = tested on: Escherichia coli; assay: Antibacterial activity against Escherichia coli Top10 after 24 hrs by twofold serial dilution method; conditions: Escherichia coli, Top10, 24 h
[11] = tested on: Klebsiella pneumoniae; assay: Antibacterial activity against Klebsiella pneumoniae isolate 92 after 24 hrs by twofold serial dilution method; conditions: Klebsiella pneumoniae, isolate 92, 24 h
[12] = tested on: Escherichia coli; assay: Antibacterial activity against Escherichia coli HB101 after 24 hrs by twofold serial dilution method; conditions: Escherichia coli, HB101, 24 h
[13] = tested on: Escherichia coli; assay: Antibacterial activity against Escherichia coli isolate 21 after 24 hrs by twofold serial dilution method; conditions: Escherichia coli, isolate 21, 24 h
[14] = tested on: Escherichia coli; assay: Antibacterial activity against Escherichia coli JM109 after 24 hrs by twofold serial dilution method; conditions: Escherichia coli, JM109, 24 h
[15] = tested on: Escherichia coli; assay: Antibacterial activity against Escherichia coli isolate 24 after 24 hrs by twofold serial dilution method; conditions: Escherichia coli, isolate 24, 24 h
[16] = tested on: Klebsiella pneumoniae; assay: Antibacterial activity against Klebsiella pneumoniae isolate 204 expressing qnr B19 gene after 24 hrs by twofold serial dilution method; conditions: Klebsiella pneumoniae, isolate 204, 24 h
[17] = tested on: Escherichia coli; assay: Antibacterial activity against Escherichia coli isolate 13 after 24 hrs by twofold serial dilution method; conditions: Escherichia coli, isolate 13, 24 h
[18] = tested on: Escherichia coli; assay: Antibacterial activity against Escherichia coli isolate 47 expressing qnr B19 gene after 24 hrs by twofold serial dilution method; conditions: Escherichia coli, isolate 47, 24 h
[19] = tested on: Klebsiella pneumoniae; assay: Antibacterial activity against Klebsiella pneumoniae isolate 370 expressing qnr B19 gene, GyrA D87G mutant after 24 hrs by twofold serial dilution method; conditions: isolate 370, 24 h
[20] = tested on: Escherichia coli; assay: Antibacterial activity against Escherichia coli isolate 115 expressing GyrA S83L mutant after 24 hrs by twofold serial dilution method; conditions: isolate 115, 24 h
[21] = tested on: Klebsiella pneumoniae; assay: Antibacterial activity against Klebsiella pneumoniae isolate 5 expressing qnr B19 gene, GyrA D87G mutant after 24 hrs by twofold serial dilution method; conditions: isolate 5, 24 h
[22] = tested on: Staphylococcus aureus; assay: Antibacterial activity against Staphylococcus aureus after 24 hrs by twofold serial dilution method; conditions: Staphylococcus aureus, 24 h
[23] = tested on: Escherichia coli; assay: Antibacterial activity against Escherichia coli isolate 9 expressing qnr B19 gene, GyrA D87G, ParC S80I mutant after 24 hrs by twofold serial dilution method; conditions: isolate 9, 24 h
[24] = tested on: Klebsiella pneumoniae; assay: Antibacterial activity against Klebsiella pneumoniae isolate 172 expressing qnr B19 gene, GyrA D87G mutant after 24 hrs by twofold serial dilution method; conditions: isolate 172, 24 h
[25] = tested on: Escherichia coli; assay: Antibacterial activity against Escherichia coli isolate 95 expressing GyrA S83L mutant after 24 hrs by twofold serial dilution method; conditions: isolate 95, 24 h
[26] = tested on: Klebsiella pneumoniae; assay: Antibacterial activity against Klebsiella pneumoniae isolate 110 expressing qnr B19 gene, GyrA D87G mutant after 24 hrs by twofold serial dilution method; conditions: isolate 110, 24 h
[27] = tested on: Escherichia coli; assay: Antibacterial activity against Escherichia coli isolate 41 after 24 hrs by twofold serial dilution method; conditions: Escherichia coli, isolate 41, 24 h
[28] = tested on: Escherichia coli; assay: Antibacterial activity against Escherichia coli JM110 after 24 hrs by twofold serial dilution method; conditions: Escherichia coli, JM110, 24 h
[29] = tested on: Klebsiella pneumoniae; assay: Antibacterial activity against Klebsiella pneumoniae isolate 16 expressing qnr B19 gene, GyrA D87G mutant after 24 hrs by twofold serial dilution method; conditions: isolate 16, 24 h
[30] = tested on: Klebsiella pneumoniae; assay: Antibacterial activity against Klebsiella pneumoniae isolate 173 after 24 hrs by twofold serial dilution method; conditions: Klebsiella pneumoniae, isolate 173, 24 h

## O=C(O)c1cn(C2CC2)c2cc(N3CCNCC3)c(F)cc2c1=O [CIPROFLOXACIN]
[1]
  MIC90: > 4 µg/mL
[2]
  MIC90: > 4 µg/mL
[3]
  MIC90: < 0.25 µg/mL
[4]
  MIC90: > 4 µg/mL
[5]
  MIC90: 0.5 µg/mL (≈ 1.51 µM)
[6]
  MIC90: < 0.25 µg/mL
[7]
  MIC90: > 4 µg/mL
[8]
  MIC90: 1 µg/mL (≈ 3.02 µM)
[9]
  MIC90: < 0.25 µg/mL
[10]
  MIC90: < 0.25 µg/mL
[11]
  MIC90: < 0.25 µg/mL
[12]
  MIC90: < 0.25 µg/mL
[13]
  MIC90: 4 µg/mL (≈ 12.1 µM)
[14]
  MIC90: > 4 µg/mL
[15]
  MIC90: < 0.25 µg/mL
[16]
  MIC90: 0.75 µg/mL (≈ 2.26 µM)
[17]
  MIC90: > 4 µg/mL
[18]
  MIC90: < 0.25 µg/mL
[19]
  MIC90: > 4 µg/mL
[20]
  MIC90: 0.5 µg/mL (≈ 1.51 µM)
[21]
  MIC90: < 0.25 µg/mL
[22]
  MIC90: > 4 µg/mL
[23]
  MIC90: > 4 µg/mL
[24]
  MIC90: < 0.25 µg/mL
[25]
  MIC90: 1 µg/mL (≈ 3.02 µM)
[26]
  MIC90: < 0.25 µg/mL
[27]
  MIC90: < 0.25 µg/mL
[28]
  MIC90: > 4 µg/mL
[29]
  MIC90: 2 µg/mL (≈ 6.04 µM)
[30]
  MIC90: > 4 µg/mL
